# Target: T1, human GPR120 (Homo sapiens, UniProt Q5NUL3)
# T1 construct: host or cells: HEK293 cells co-expressing Gqi5
# T1 sequence (Q5NUL3 1-361): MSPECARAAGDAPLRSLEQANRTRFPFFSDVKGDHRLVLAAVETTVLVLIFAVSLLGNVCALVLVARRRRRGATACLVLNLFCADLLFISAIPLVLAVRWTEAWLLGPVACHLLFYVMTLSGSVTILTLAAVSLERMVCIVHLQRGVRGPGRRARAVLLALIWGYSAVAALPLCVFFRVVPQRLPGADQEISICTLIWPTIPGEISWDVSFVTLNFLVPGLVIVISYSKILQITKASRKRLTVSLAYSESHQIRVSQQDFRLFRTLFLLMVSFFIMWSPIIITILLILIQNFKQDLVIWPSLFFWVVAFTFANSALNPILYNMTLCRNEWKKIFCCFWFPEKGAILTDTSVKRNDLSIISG
# Assay: Intracellular Ca2+ assay in human GPR120 stable cell line (HEK293 co-expressing Gqi5), Flexstation
# Assay type: cell-based
# Conditions: % activity at 5 μM compared to the maximal activity of GW9508 at 6.7 μM (=100%); human GPR120 cells, Ca2+ fluorescence
# Method in brief: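 HEK293 cells stably co-expressing Gqi5 and Flag-tagged human GPR120, loaded with Calcium 4 dye in HBSS/HEPES pH 7.4 at 37 °C; compounds at eight concentrations, 0.00001–20 μM, fluorescence (485/525 nm) read 90 s. EC50 from Max−Min change; percent activity relative to GW9508 maximum at 6.7 μM.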
row,SMILES,% Activity (GW9508 Reference Compound)
1,"Cc1cc(CCC(=O)O)c(C)c(C)c1OCc1cc(F)cc2c1OC(C)(C)C2 [Example 254, 3-(4-((5-fluoro-2,2-dimethyl-2,3-dihydrobenzofuran-7-yl)methoxy)-2,3,5-trimethylphenyl) propanoic acid]",146.14%
2,"CC(C)Oc1ccc(Cl)cc1COc1cc2c(cc1F)C(CC(=O)O)CC2 (centres unmarked) [Example 257, 2-(5-((5-chloro-2-isopropoxybenzyl)oxy)-6-fluoro-2,3-dihydro-1H-inden-1-yl)acetic acid]",124.62%
3,"CC(C)Oc1ccc(Cl)cc1COc1ccc2c(c1)CCC2CC(=O)O (centres unmarked) [Example 258, 2-(5-((5-chloro-2-isopropoxybenzyl)oxy)-2,3-dihydro-1H-inden-1-yl)acetic acid]",139.95%
4,"CC(C)Oc1ncccc1COc1ccc2c(c1)CCC2CC(=O)O (centres unmarked) [Example 259, 2-(5-((2-isopropoxypyridin-3-yl)methoxy)-2,3-dihydro-1H-inden-1-yl)acetic acid]",118.5%
5,"CC(Cc1cc(F)c(OCc2cccc3cn[nH]c23)c(F)c1)C(=O)O (centres unmarked) [Example 260, 3-(4-((1H-indazol-7-yl)methoxy)-3,5-difluorophenyl)-2-methylpropanoic acid]",16.67%
6,"Cc1nc2cccc(COc3c(F)cc(CC(C)C(=O)O)cc3F)c2o1 (centres unmarked) [Example 261, 3-(3,5-difluoro-4-((2-methylbenzo[d]oxazol-7-yl)methoxy)phenyl)-2-methylpropanoic acid]",108.78%
7,"CC1(C)Cc2cc(F)cc(COc3ccc4c(CC(=O)O)cc(=O)oc4c3)c2O1 [Example 263, 2-(7-((5-fluoro-2,2-dimethyl-2,3-dihydrobenzofuran-7-yl)methoxy)-2-oxo-2H-chromen-4-yl)acetic acid]",5.98%
8,"CC(Cc1ccc(OCc2cc(F)cc3c2OC(C)(C)C3)cc1)C(=O)NO (centres unmarked) [Example 264, 3-(4-((5-fluoro-2,2-dimethyl-2,3-dihydrobenzofuran-7-yl)methoxy)phenyl)-N-hydroxy-2-methylpropanamide]",110.24%

# Now from value to molecule:
row,% Activity (GW9508 Reference Compound),SMILES
1,106.7955%,"CC(Cc1ccc(OCc2cc(Cl)cc3c2OC(C)(C)C3)c(F)c1)C(=O)O (centres unmarked) [Example 10, 3-(4-((5-chloro-2,2-dimethyl-2,3-dihydrobenzofuran-7-yl)methoxy)-3-fluorophenyl)-2-methylpropanoic acid]"
2,119.0442%,CC(Cc1ccc(OCc2cc(Cl)cc3c2OC(C)(C)C3)cc1)C(=O)O (centres unmarked) [Example 13]
3,101.01%,"[2H]C([2H])(Oc1ccc(CC(C)C(=O)O)cc1C(F)(F)F)c1cc(F)cc2c1OC(C)(C)C2 (centres unmarked) [Example 231, 3-(4-(dideuterio(5-fluoro-2,2-dimethyl-2,3-dihydrobenzofuran-7-yl)methoxy)-3-(trifluoromethyl)phenyl)-2-methylpropanoic acid]"
4,159.62%,"[2H]C([2H])(C(=O)O)C([2H])([2H])c1ccc(OCc2cc(Cl)cc3c2OC(C)(C)C3)c(F)c1 [Example 241, 3-(4-((5-chloro-2,2-dimethyl-2,3-dihydrobenzofuran-7-yl)methoxy)-3-fluorophenyl)-2,2,3,3-tetradeuteriopropanoic acid]"
5,155.23%,"[2H]C([2H])(C(=O)O)C([2H])([2H])c1ccc(OCc2cc(F)cc3c2OC(C)(C)C3)c(F)c1CC [Example 243, 3-(2-ethyl-3-fluoro-4-((5-fluoro-2,2-dimethyl-2,3-dihydrobenzofuran-7-yl)methoxy)phenyl)-2,2,3,3-tetradeuteriopropanoic acid]"
6,10.23%,"CC1(C)Cc2cc(Cl)cc(COc3ccccc3CCC(=O)O)c2O1 [Example 250, 3-(2-((5-chloro-2,2-dimethyl-2,3-dihydrobenzofuran-7-yl)methoxy)phenyl)propanoic acid]"
7,61.14%,"CC(Cc1cccc(OCc2cc(Cl)cc3c2OC(C)(C)C3)c1)C(=O)O (centres unmarked) [Example 251, 3-(3-((5-chloro-2,2-dimethyl-2,3-dihydrobenzofuran-7-yl)methoxy)phenyl)-2-methylpropanoic acid]"
8,137.39%,"CC1(C)Cc2cc(F)cc(COc3ccc4c(CC(=O)O)coc4c3)c2O1 [Example 262, 2-(6-((5-fluoro-2,2-dimethyl-2,3-dihydrobenzofuran-7-yl)methoxy)benzofuran-3-yl)acetic acid]"
9,42.73%,"CC(C)C(CC(=O)O)c1ccc(OCc2cc(Cl)cc3c2OC(C)(C)C3)cc1 (centres unmarked) [Example 266, 3-(4-((5-chloro-2,2-dimethyl-2,3-dihydrobenzofuran-7-yl)methoxy)phenyl)-4-methylpentanoic acid]"
10,140.82%,"Cc1c(CCC(=O)O)ccc(OCc2cc(Cl)cc3c2CC(C)(C)O3)c1C [Example 267, 3-(4-((6-chloro-2,2-dimethyl-2,3-dihydrobenzofuran-4-yl)methoxy)-2,3-dimethylphenyl)propanoic acid]"

# Tested on: C57BL/6J mice
# Assay: Intra peritoneal glucose tolerance test (IPGTT)
# Assay type: in vivo
# Conditions: Mus musculus, 2 h; C57BL/6J mice fasted overnight, compound 30 mg/kg oral gavage at -30 min, 2 g/kg glucose intra peritoneally, incremental AUC 0-120 min vs vehicle; read-out: % reduction IPGTT at 30 mg/kg
# Experimental: 8-10 week old male C57BL/6J mice (Harlan) were maintained on regular chow diet from Harlan (2018 Teklad Global). On the day before the experiment mice were fasted overnight, then randomized into groups (n=10-15) to receive the tested GPR120 agonist at doses ranging from 100 mg/kg or the vehicle (1% CMC, 2% TWEEN 80). Compounds were delivered orally via gavage at 10 mL/kg. Blood glucose levels were measured by glucometer (Ascensia Elite XL, Bayer) at time −30 minutes before administration of compound. Blood glucose was measured again after 30 minutes (at time 0), and then the mice were dosed intra peritoneally with 2 g/kg glucose at 10 mL/kg. Blood glucose measurements were taken 20, 40, 60, 90 and 120 minutes after glucose administration, by glucometer (Ascensia Elite XL, Bayer).
# Glucose levels were plotted against time, and the incremental area under the curve (AUC) of the glucose excursion was determined from time 0 using Graphpad Prism 5.01. Outliers were excluded using Tukey's box plot outlier test, and statistical significance of differences in AUC of compound treatment compared to vehicle was determined by non-parametric Kruskal-Wallis test with Dunn's post test.
# The compounds were tested at 30 mg/kg and the levels of blood glucose were determined in the presence and absence of the tested compounds. The percentage of glucose reduction is reported. […]
row,SMILES,inhibition in vivo at 30 mg/kg
1,"CC(Cc1ccc(OCc2cc(Cl)cc3c2OC(C)(C)C3)c(F)c1)C(=O)O (centres unmarked) [Example 10, 3-(4-((5-chloro-2,2-dimethyl-2,3-dihydrobenzofuran-7-yl)methoxy)-3-fluorophenyl)-2-methylpropanoic acid]",30.7%
2,CC(Cc1ccc(OCc2cc(Cl)cc3c2OC(C)(C)C3)cc1)C(=O)O (centres unmarked) [Example 13],31%
